Measurements: patent US4886806A, “Flavone-3-carboxylic acids compounds and pharmaceutical compositions containing them” (Kali-Chemie Pharma GmbH, priority 1987, dated 1989)
Where two headings read alike, the source gives them in different places.

Legend:
[1] = tested on: oxygen radical-forming activity of activated peritoneal exudate cells (PEC) of mice; test: Peak chemiluminescence (CL) test: inhibition of oxygen radical liberation from activated peritoneal exudate cells; type: cell-based; settings: 10^-4 Mol substance/l, added at peak of cell activity; for inhibition at 100 µM (stock): Mus musculus, read-out: Inhibition in vitro of the oxygen radical liberation, Chemiluminescence Test % inhibition, Pk. CL
Method: 1. To determine the inhibiting effect on the oxygen radical-forming activity of inflamed cells, the in vitro inhibition of the release of oxygen radicals from activated peritoneal exudate cells (=PEC) of mice was determined in the chemiluminescence (CL) test according to the method of Mueller-Peddinghaus (Int. J. Immunopharmac. 6, 455-466 (1984)). […] The intensity of the chemiluminescence is a measurement of the oxygen radical content in the suspension and thus the degree of activity of the inflamed cells. In this, three functionally different parameters are detected, the spontaneous CL, the induced CL and the peak CL. The spontaneous CL and the induced CL on the one hand and the peak CL on the other hand differ from each other because in the first two parameters the test substances are in contact with the cells for a 30 minute preincubation period before the inflammation irritant is added, whereas with the peak CL the cells are first stimulated, and the test substance is added at the peak of their activity. The measurement of the spontaneous CL thus detects the influence of the test substance on the relative rest activity of inflamed cells, the induced CL represents the effect of the test substances on the activatability of the cells and the inhibition of the peak CL indicates the effect of the test substances on the maximum activity of the inflamed cells. 1.1 Production of PEC suspension used in the test. In order to induce the PEC formation, female mice of 20-25 g body weight were each injected i.p. with 2 ml of a 3% solution of thioglycollate in sterile isotonic sodium chloride solution. Twenty four hours after the thioglycollate injection the cells, which predominantly consisted of polymorphonuclear leucocytes, were recovered by washing out of the abdominal cavity and washed twice. As cell culture medium there was added a commercially available solution under the designation RPMI 1640 (pH 7.2) (produced by Flow Laboratories, […], Germany), which contains 10% fetal calf serum (FCS, produced by Seromed GmbH, Munich, Germany) 18 μmol/l sodium bicarbonate and 2 μmol/l L-glutamine. The cell pellets of four animals each time were resuspended in cell culture medium, collected together and the suspension was made up to 2×10^6 cells per ml with cell culture medium. The cell suspensions were kept under ice cooling until their use the same day. 1.2 Production of the complement opsonized zymosan (=ZyC3 b) suspension used for activation. 200 mg zymosan (glycoprotein mixture isolated from the cell walls of brewer's yeast, Sacchomyces […], produced by Sigma Chemical Co., Munich, Germany) were suspended in 10 ml phosphate buffer solution according to Dulbecco (produced by Flow Laboratories, […], Germany), well stirred and heated for thirty minutes in a water bath to 100° C. After cooling, it was centrifuged for five minutes at 4° C. and at 600 ×g and the supernatant was discarded. The sediment was resuspended in 50 ml human serum and incubated for thirty minutes at 37° C. in a shaking water bath. Then it was centrifuged for five minutes at 600 ×g and 420 C., the supernatant decanted and the sediment washed with phosphate buffer solution. The working suspension of 8×10^-3 g ZyC3 b/ml was produced from the sediment by dilution with phosphate buffer solution (Mueller-Peddinghaus et al., Zbl. Vet. Med. B. 30, 559-575). 1.3 Chemiluminescence (CL) measurement (Peak-CL). The PEC suspension was divided into samples of 100 μl each, placed in test tubes, and these were incubated for ten minutes at a temperature of 3720 C. in a measurement device (Chemiluminescence analyzer, Laboratorium Prof. Berthold, Wildbad, Germany). Then in order to amplify the chemiluminescence, 100 μl lucigenin solution was added (final concentration 1.54×10^-4 mol/l) and incubated for 16 more minutes. The cells were then activated by the addition of 100 μl of the ZyC3 b suspension produced as described in section 1.2 plus 100 μl phosphate buffer solution. […]

Lipoxygenase = test: LTB4 synthesis and inhibition test (lipoxygenase inhibition in vitro) in polymorphonuclear leucocytes; type: cell-based; settings: PMNL; for inhibition at 100 µM: Homo sapiens, read-out: Lipoxygenase inhib. in vitro, % inhibition of the LTB4 synthesis at 10^-4 Mol/l
Method: 2. In order to investigate the lipoxygenase-inhibiting properties, the inhibiting effect of the substances on the biosynthesis of leucotriene B4 (=LTB4) from arachidonic acid by activated inflamed cells was determined in vitro. Leucotriene B4, a dihydroxy fatty acid which plays an important role not only in the inflammation but also in allergic reactions was oxidatively formed, starting from arachidonic acid, by oxidation through the action of the enzyme lipoxygenase.
LTB4 Synthesis and Inhibition Test.
The combined extracts were evaporated under vacuum to dryness and the residue was taken up in 0.5 ml 30% aqueous methanol and was analyzed with the aid of high pressure liquid chromatography with phase reversal (=reversed phase-HPLC). The stationary phase (=separating medium) consisted of silica gel containing octadecyl groups chemically bound thereto (=RSIL C18 HP; produced by Autech, Darfield, Ill.). The solvent mixture is methanol:water:acetic acid (67:33:0.1; v/v/v), which had been adjusted to a pH value of 6.2 with NH3 /H2 O. The flow velocity was 1 ml/min. […] The LTB4 signals were compared with those of the control (cell incubation with solvent) and reported as percent inhibition of LTB4 synthesis compared with the controls.

[2] = 10^-4 Mol/l, Ca-ionophore A 23187, arachidonic acid

| Structure (SMILES) | inhibition at 100 µM (stock) [1] | inhibition at 100 µM (Lipoxygenase; [2]) | inhibition at 100 µM (Lipoxygenase) | Inhibition in vitro of the oxygen radical liberation, Chemiluminescence Test % inhibition, Pk. CL [1] | Lipoxygenase inhib. in vitro, % inhibition of the LTB4 synthesis at 10^-4 Mol/l (Lipoxygenase; [2]) |
| --- | --- | --- | --- | --- | --- |
| Cl.O=C(c1c(-c2ccccc2)oc2ccccc2c1=O)N1CCN(c2ccccn2)CC1 [Example 1c, 3-{[4-(2-Pyridyl)-piperazin-1-yl]-carbonyl}flavone hydrochloride] | 47% | 52% |  |  |  |
| O.O=C(O)C(O)C(O)C(=O)O.O=C(c1c(-c2ccccc2)oc2ccccc2c1=O)N1CCN(Cc2ccccc2)CC1 [Example 2b, 3-[(4-benzyl-piperazin-1-yl)-carbonyl]flavone tartrate monohydrate] | 58% |  | 92% |  |  |
| CCN(CC)CCCOC(=O)c1c(-c2ccccc2)oc2ccccc2c1=O.Cl [Example 3b, 3-[3-(diethylamino)propoxycarbonyl]flavone hydrochloride] | 61% | 8% |  |  |  |
| O=C(NCCCCN1CCN(c2ccccn2)CC1)c1c(-c2ccccc2)oc2ccccc2c1=O [Example 4e, 3-{4-[4-(2-pyridyl)-piperazin-1-yl]-butylaminocarbonyl}flavone] | 76% | 10% |  |  |  |
| COc1cc(-c2oc3ccccc3c(=O)c2C(=O)N2CCN(c3ccccn3)CC2)cc(OC)c1OC [Example 7a, 3',4',5'-trimethoxy-3-{[4-(2-pyridyl)-piperazin-1-yl]-carbonyl}flavone] |  | 38% |  | 68% |  |
| COc1cc(-c2oc3ccccc3c(=O)c2C(=O)N2CCN(c3ccccn3)CC2)cc(OC)c1OC [Example 7b, 3',4',5'-trimethoxy-3-{[4-(2-pyridyl)-piperazin-1-yl]-carbonyl}flavone] |  |  |  | 44% | 42% |
| O.O.O=C(O)C(O)C(O)C(=O)O.O=C(c1c(-c2cc(O)c(O)c(O)c2)oc2ccccc2c1=O)N1CCN(Cc2ccccc2)CC1 [Example 14e, 3',4',5'-trihydroxy-3-[(4-benzylpiperazin-1-yl)carbonyl] -flavone tartrate dihydrate] | 99% |  | 86% |  |  |
| CN1CCN(CCCCNC(=O)c2c(-c3ccccc3)oc3ccccc3c2=O)CC1 [Example 24] | 1% | 46% |  |  |  |
| O=C(c1c(-c2cccc(O)c2)oc2ccccc2c1=O)N1CCN(Cc2ccccc2)CC1 [Example 30] | 85% | 44% |  |  |  |
| COc1ccc(-c2oc3ccccc3c(=O)c2C(=O)N2CCN(c3ccccn3)CC2)cc1OC [Example 32b] | 56% | 25% |  |  |  |
| COc1cc(OC)c2c(=O)c(C(=O)N3CCN(c4ccccn4)CC3)c(-c3ccccc3)oc2c1 [Example 34] | 25% | 25% |  |  |  |
| CC(=O)Oc1cc(-c2oc3ccccc3c(=O)c2C(=O)N2CCN(c3ccccn3)CC2)cc(OC(C)=O)c1OC(C)=O [Example 39b] | 99% | 93% |  |  |  |
| O=C(NCCc1ccccn1)c1c(-c2cc(O)c(O)c(O)c2)oc2ccccc2c1=O [Example 53] | 77% | 77% |  |  |  |
| COc1cc(-c2oc3ccccc3c(=O)c2C(=O)NCCCCN2CCN(c3ncccn3)CC2)cc(OC)c1OC [Example 54] | 72% | 44% |  |  |  |
